The text below walks through data of patent US20200172491A1, “SUBSTITUTED 5-(HET-)ARYLPYRAZOLAMIDES AND SALTS THEREOF AND THEIR USE AS HERBICIDAL ACTIVE SUBSTANCES” (Bayer CropScience Aktiengesellschaft, priority 2017, published 2020).

Common to all, as to format: in vivo
Test [1] has as its system Amaranthus retroflexus. As to the kind of experiment: Post-emergence herbicidal action. Conditions: 320 g/ha, rated after about 3 weeks, 100% = plants have died, 0% = like control plants. How it is done: (§1) Seeds of monocotyledonous and dicotyledonous weeds and crop plants were placed in sandy loam in plastic or wood-fiber pots, covered with soil and cultivated in a greenhouse under controlled growth conditions. 2 to 3 weeks after sowing, the test plants were treated at the one-leaf stage. The compounds of the invention, formulated in the form of wettable powders (WP) or as emulsion concentrates (EC), were then sprayed onto the green parts of the plants as aqueous suspension or emulsion with addition of 0.5% additive at a water application rate of 600 l/ha (converted). After the test plants had been kept in the greenhouse under optimum growth conditions for about 3 weeks, the activity of the preparations was rated visually in comparison to untreated controls. For example, 100% activity=the plants have died, 0% activity=like control plants. Tables B1 to B6 below show the effects of selected compounds of the general formula (I) according to Table A1 at an application rate of 320 g/ha on various harmful plants, which were obtained by the aforementioned experimental procedure.

Test [2] deals with Stellaria media. As to the kind of experiment: Post-emergence herbicidal action. The note with it: 320 g/ha, rated after about 3 weeks, 100% = plants have died, 0% = like control plants. How it is done: as §1
The test system of test [3] is Veronica persica. As to the kind of experiment: Post-emergence herbicidal action. The note with it: 320 g/ha, rated after about 3 weeks, 100% = plants have died, 0% = like control plants. How it is done:
as §1

For test [4], the system named is Viola tricolor. As to the kind of experiment: Post-emergence herbicidal action. Conditions: 320 g/ha, rated after about 3 weeks, 100% = plants have died, 0% = like control plants. How it is done: as §1
Test [5] relates to Amaranthus retroflexus. As to the kind of experiment: Pre-emergence herbicidal action. Conditions: 320 g/ha, scored after about 3 weeks, 100% = plants have died, 0% = like control plants. The text has this:
(§2) Seeds of monocotyledonous and dicotyledonous weed plants and crop plants were placed in plastic or wood-fiber pots and covered with soil. The compounds of the invention, formulated in the form of wettable powders (WP) or as emulsion concentrates (EC), were then applied to the surface of the covering soil as aqueous suspension or emulsion with addition of 0.5% additive at a water application rate equivalent to 600 l/ha. After the treatment, the pots were placed in a greenhouse and kept under good growth conditions for the test plants. After about 3 weeks, the effect of the preparations is scored visually in comparison with untreated controls as percentages. For example, 100% activity=the plants have died, 0% activity=like control plants. Tables B7 to B11 below show the effects of selected compounds of the general formula (I) according to Table A1 at an application rate of 320 g/ha on various harmful plants, which were obtained by the aforementioned experimental procedure.

For test [6], the system named is Matricaria inodora. As to the kind of experiment: Pre-emergence herbicidal action. Conditions: 320 g/ha, scored after about 3 weeks, 100% = plants have died, 0% = like control plants.
Description: as §2

The test system of test [7] is Stellaria media. As to the kind of experiment: Pre-emergence herbicidal action. The note with it: 320 g/ha, scored after about 3 weeks, 100% = plants have died, 0% = like control plants.
Description: as §2

In test [8] the test system is Viola tricolor. As to the kind of experiment: Pre-emergence herbicidal action. Conditions: 320 g/ha, scored after about 3 weeks, 100% = plants have died, 0% = like control plants.
Description: as §2

Test [9] concerns Veronica persica. As to the kind of experiment: Pre-emergence herbicidal action. Conditions: 320 g/ha, scored after about 3 weeks, 100% = plants have died, 0% = like control plants.
Description: as §2

Test [10] has as its system Ipomoea purpurea. As to the kind of experiment: Post-emergence herbicidal action. Conditions: 320 g/ha, rated after about 3 weeks, 100% = plants have died, 0% = like control plants. The method, then:
as §1

The test system of test [11] is Matricaria inodora. As to the kind of experiment: Post-emergence herbicidal action. Conditions: 320 g/ha, rated after about 3 weeks, 100% = plants have died, 0% = like control plants. The method, then: as §1

In the case of `Cc1nn(C)c(-c2cc(F)ccc2Cl)c1C(=O)Nc1cccc(Cl)c1` [I-004], the “herbicidal activity on Amaranthus retroflexus (visual rating vs untreated controls)” value in [1] and in [5] was 100% each time. The “herbicidal activity on Stellaria media (visual rating vs untreated controls)” value was 100% in test [2] and 80% in test [7]. In addition, the “herbicidal activity on Veronica persica (visual rating vs untreated controls)” value in test [3] came out at 100%. The “herbicidal activity on Viola tricolor (visual rating vs untreated controls)” value in [4] turned out to be 100%; in [8], 80%. The “herbicidal activity on Matricaria inodora (visual rating vs untreated controls)” value in test [6] was 90%.

As to `Cc1nn(C)c(-c2ccc(F)cc2Cl)c1C(=O)Nc1cc(F)ccc1F` [I-008], the “herbicidal activity on Amaranthus retroflexus (visual rating vs untreated controls)” value in test [1] and in test [5] was 100% in each case. Also, the “herbicidal activity on Stellaria media (visual rating vs untreated controls)” value in test [2] and in test [7] was 100% in each case. In addition, the “herbicidal activity on Veronica persica (visual rating vs untreated controls)” value in test [3] turned out to be 80%. Also, the “herbicidal activity on Viola tricolor (visual rating vs untreated controls)” value in test [4] and in test [8] was 100% throughout. For the same compound, the “herbicidal activity on Matricaria inodora (visual rating vs untreated controls)” value in test [6] worked out at 90%.

Regarding `Cc1nn(C)c(-c2ccc(F)cc2Cl)c1C(=O)Nc1cccc2c1C(C)OC2(C)C` (centres unmarked) [I-019], the “herbicidal activity on Amaranthus retroflexus (visual rating vs untreated controls)” value in [1] and in test [5] was 100% in each case. Further, the “herbicidal activity on Stellaria media (visual rating vs untreated controls)” value in test [2] stood at 80%; in [7], 100%. Moreover, the “herbicidal activity on Veronica persica (visual rating vs untreated controls)” value in test [3] was 100%. Moreover, the “herbicidal activity on Viola tricolor (visual rating vs untreated controls)” value in test [4] and in [8] was 100% throughout. Also, the “herbicidal activity on Matricaria inodora (visual rating vs untreated controls)” value in test [6] is recorded as 100%.

For `Cc1cccc(NC(=O)c2c(C)nn(C)c2-c2ccc(F)cc2Cl)c1` [I-022], the “herbicidal activity on Amaranthus retroflexus (visual rating vs untreated controls)” value in [1] and in test [5] was 100% throughout. The “herbicidal activity on Stellaria media (visual rating vs untreated controls)” value in test [2] and in test [7] was 100% each time. In addition, the “herbicidal activity on Veronica persica (visual rating vs untreated controls)” value in [3] and in test [9] was 100% each time. Moreover, the “herbicidal activity on Viola tricolor (visual rating vs untreated controls)” value in [4] is 100%. Moreover, in [6], the “herbicidal activity on Matricaria inodora (visual rating vs untreated controls)” value stood at 100%.

As for `Cc1cccc(Cl)c1NC(=O)c1c(C)nn(C)c1-c1ccc(F)cc1Cl` [I-028], the “herbicidal activity on Amaranthus retroflexus (visual rating vs untreated controls)” value in test [1] and in test [5] was 100% throughout. The “herbicidal activity on Ipomoea purpurea (visual rating vs untreated controls)” value in test [10] is reported as 100%. In addition, the “herbicidal activity on Matricaria inodora (visual rating vs untreated controls)” value in test [11] and in [6] was 100% each time. Further, the “herbicidal activity on Stellaria media (visual rating vs untreated controls)” value in test [2] and in [7] was 100% in each case. For the same compound, the “herbicidal activity on Viola tricolor (visual rating vs untreated controls)” value in test [4] was 100%. Besides, the “herbicidal activity on Veronica persica (visual rating vs untreated controls)” value in test [9] amounted to 100%.

With `Cc1nn(C)c(-c2ccc(F)cc2Cl)c1C(=O)Nc1ccccc1Cl` [I-029], the “herbicidal activity on Amaranthus retroflexus (visual rating vs untreated controls)” value in [1] came to 100%. Further, the “herbicidal activity on Stellaria media (visual rating vs untreated controls)” value in test [2] and in test [7] was 100% each time. In test [3], the “herbicidal activity on Veronica persica (visual rating vs untreated controls)” value worked out at 100%. Also, the “herbicidal activity on Viola tricolor (visual rating vs untreated controls)” value in test [4] is 100%. For the same compound, the “herbicidal activity on Matricaria inodora (visual rating vs untreated controls)” value in test [6] is 100%.

Turning to `Cc1cccc(NC(=O)c2c(C)nn(C)c2-c2ccc(F)cc2Cl)c1C` [I-030], the “herbicidal activity on Amaranthus retroflexus (visual rating vs untreated controls)” value in test [1] and in [5] was 100% in each case. Moreover, in test [10], the “herbicidal activity on Ipomoea purpurea (visual rating vs untreated controls)” value is on record as 100%. The “herbicidal activity on Matricaria inodora (visual rating vs untreated controls)” value in test [11] is on record as 90%; in test [6], 100%. For the same compound, the “herbicidal activity on Stellaria media (visual rating vs untreated controls)” value in [2] and in test [7] was 100% in each case. Besides, in [4], the “herbicidal activity on Viola tricolor (visual rating vs untreated controls)” value was determined as 100%. Further, the “herbicidal activity on Veronica persica (visual rating vs untreated controls)” value in test [9] was determined as 100%.
